US20230321187A1, “OCTOPUS-DERIVED PEPTIDE OCTOPROMYCIN HAVING ANTIBACTERIAL AND ANTI-BIOFILM ACTIVITY AGAINST ACINETOBACTER BAUMANNII” (priority 2020, published 2023)
“Also recorded” adds a separate entry of the source. Where no end group is shown, it is not given here.

Columns and labels:
A. baumannii [1] = assay: Time-kill kinetics (OD 595 nm); type: cell-based, Acinetobacter baumannii
Description: (§1) The MIC and MBC levels of octopromycin in A. baumannii were determined using media dilution tests and subcultures, respectively, according to the guidelines of the Clinical and Laboratory Standards Institute (CLSI, 2008 M27-A3). Several concentrations of octopromycin (0, 5, 10, 25, 50, 100, and 200 μg/mL) were tested as standard antibiotics (positive control) together with chloramphenicol (10 μg/mL, Sigma-Aldrich, USA) acting on A. baumannii growth and the MBC of chloramphenicol was confirmed according to the same procedure. The MIC was determined as the minimum concentration required to inhibit visual growth of A. baumannii. […] For analysis of time-kill kinetics, A. baumannii was cultured with octopromycin at various concentrations (0, 25, 50, 100, and 200 μg/mL) in the TSA medium at 25° C., and at different time intervals (0, 3, 6, 9, 12, 18, and 21 h), the absorbance was measured at 595 nm using a microplate reader (Bio-Rad, Saint Louis, USA) to confirm an inhibitory effect after culturing.

A. baumannii [2] = type: cell-based; conditions: Acinetobacter baumannii, 24 h, 200 μg/mL
Description: A. baumannii was cultured in TSB (OD-0.25, 2.5 x 10^6 CFU/mL) and treated with octopromycin at various concentrations (0, 25, 50, 75, 100, 150, and 200 μg/mL). After culturing for 24 hours in a shaking incubator at 180 rpm at 25° C., A. baumannii was centrifuged at 3500 rpm for 10 minutes, and the cells were washed with PBS. For cell viability assay, A. baumannii cells reacted with 20 μL of an MTT reagent (Sigma Aldrich, USA) for 30 minutes, and the samples were resuspended in dimethylsulfoxide (Sigma Aldrich, USA). The cell viability was measured based on OD at 570 nm using a microplate reader (Bio-Rad, Saint Louis, USA).

A. baumannii [3] = assay: A. baumannii-infected zebrafish model (viability, CFU, clinical signs); type: in vivo
Description: The effect of octopromycin as an antibacterial agent was confirmed using zebrafish as an animal model.
A total of 72 zebrafish (average weight: 0.35±0.05 g) were divided into 3 groups: (1) non-infected control group treated with PBS and water, (2) A. baumannii-infected group, and (3) A. baumannii-infected and octopromycin-treated group (octopromycin-treated group).
Zebrafish was anesthetized using system water containing 160 μg/mL of tricaine (ethyl 3-aminobenzoate methane sulfonate). The control group ((1) group) was injected with 10 μL of nucleous free water (NFW) and 20 μL of PBS using a Hamilton® syringe. The A. baumannii-infected group ((2) group) was injected intraperitoneally with 10 μL of NFW, and the octopromycin-treated group ((3) group) was injected intraperitoneally with 10 μL of octopromycin (10 μg/fish). Then, A. baumannii was injected intraperitoneally (0 hpi) in the A. baumannii-infected group and the octopromycin-treated group at a dose of 20 μ1 (3.4×10^11 CFU) per fish, and then injected every 2 hpi until 48 hpi. To confirm the antibacterial effect of octopromycin, fish mortality was recorded every 12 hpi and the viability of each group was examined.
In addition, the number of bacteria (CFU) in the kidneys and spleens of the control group and the infected zebrafish was observed. 3 fish from each group at the 80% mortality stage of the A. baumannii-infected group was selected, and then the spleen and the kidney were collected, and individual spleen and kidney tissues from each zebrafish were homogenized in PBS and the homogenates were serially diluted and loaded onto an agar plate (TSA) to measure A. baumannii CFU.

A. baumannii [4] = assay: FE-SEM analysis of morphological and ultrastructural changes; type: cell-based, Acinetobacter baumannii; conditions: MIC (50 μg/mL) and MBC (200 μg/mL), 9 hours
Description: To understand a mode of action of octopromycin, FE-SEM analysis was performed at MIC and MBC concentrations to estimate the ultrastructure changes of A. baumannii.
First, A. baumannii cells were treated with octopromycin at MIC (50 μg/mL) and MBC (200 μg/mL) for 9 hours. As a negative control group, an untreated A. baumannii culture solution was used, and all other steps were performed identically for the sample. Subsequently, the culture solution was centrifuged at 3500 rpm […] and the pellet was washed with phosphate saline buffer PBS and prefixed with 2.5% glutaraldehyde for 30 minutes. Then, the prefixed cells were washed with PBS and continuously dehydrated using ethanol (30, 50, 70, 80, 90, and 100%). The fixed cells were dried and coated with platinum using an ion sputter (E-1030, Hitachi, Japan).

A. baumannii [5] = assay: MIC and MBC by media dilution test and subculture (CLSI); type: cell-based, Acinetobacter baumannii
Description: In Example 2, in order to confirm the antibacterial effect of octopromycin on A. baumannii bacteria having multi-drug resistance, a minimum inhibitory concentration (MIC) and a minimum bactericidal concentration (MBC) of octopromycin were confirmed.
as §1

A. baumannii [6] = assay: Histological analysis of A. baumannii-infected zebrafish (H&E); type: in vivo; conditions: 48 hpe, vs A. baumannii-infected group
From the text: Two zebrafish were selected from each group at the 80% death stage (48 hpe) and the spleen, gills and kidneys were collected separately. Structural changes in A. baumannii-infected zebrafish treated with octopromycin were confirmed by histological analysis. Briefly, two fish from each group (control group, A. baumannii-infected group and octopromycin-treated group) were anesthetized with excess tricaine and the spleen, gills, and kidneys were surgically removed. Each tissue was immersed in PBS and fixed in 10% neutral buffered formalin. After a 12-hour washing step, tissues were dehydrated using a graded series of alcohols in a semi-closed benchtop tissue processor (Leica® TP1020, Germany). The dehydrated tissues were paraffin-embedded (Leica®EG1150 Tissue Embedding Center, Germany), sectioned at […] (Leica®RM2125 microtome, Germany), and stained with Hematoxylin and Eosin (H & E) (Sigma, Aldrich). The stained tissues of each group were imaged using a digital camera (LEICA®DCF450-C, Germany) connected to a microscope (LEICA®DM 3000 LED).

RRLIRTDTGPIIYDYFKDQLLKKGMVILRESMKNLKGM [octopromycin]
growth inhibition (time-kill kinetics) (A. baumannii [1]; 25 μg/mL, up to 12 hours): partial growth inhibition
growth inhibition (time-kill kinetics) (A. baumannii [1]; at a MIC concentration or less, 25° C., OD 595 nm): clear growth inhibition
cell viability of A. baumannii (A. baumannii [2]): 1.54%
viability of infected zebrafish (A. baumannii [3]; 10 μg/fish intraperitoneally, 48 hours after A. baumannii infection): 37.5%
number of bacteria (CFU) in spleen and kidney (A. baumannii [3]; 10 μg/fish, rank among the three groups): second highest
external clinical signs (hemorrhage) (A. baumannii [3]; 10 μg/fish, vs A. baumannii-infected group): less hemorrhage
morphological and ultrastructural changes (FE-SEM) (A. baumannii [4]): severe membrane destruction; also recorded: caused ultrastructural cell wall deformation
minimum bactericidal concentration (MBC) (A. baumannii [5]; subculture on TSA, 24 hours): 200 µg/mL
minimum inhibitory concentration (MIC) (A. baumannii [5]; visual growth): 50 µg/mL
histology of kidney, spleen and gills (A. baumannii [6]): tissue disorders and pathological damage were reduced overall; also recorded: tissue disorders and pathological damage were reduced in all tissues
